The values that follow come from PMC2725291, “Genetic and Molecular Basis of Individual Differences in Human Umami Taste Perception” (PLoS ONE, 2009).

The structures appear in SMILES notation.

This test relates to 254 Japanese subjects. The experiment in a line: Taste recognition threshold measurement (staircase method). The format is in vivo, human. The note with it: for mean recognition threshold by Gaussian fit analysis: center±S.E. of gaussian curve. From the text: A total of 254 healthy, non-obese, non-diabetic Japanese volunteers [male/female: 141/113, age: 20–36, body mass index (BMI); 16.5–24.8] participated in this study. The purpose of the study as well as the methods and procedure were explained to the participants and the patients in this manuscript have given written informed consent. All protocols were approved by the local ethics committee at Kyushu University. Subjects were asked to refrain from consuming alcohol the day before testing, caffeine on the day of testing, and food during the experimentation period. The inclusion criteria were satisfactory state of oral hygiene, non-smoking, regular work, sleep, and meal schedules.
As MSG contains sodium, great care was taken to compare individual sensitivities to MSG relative to NaCl. […] The differences in concentrations in the present study were in 0.3 log steps, which mean step-wise increases in concentration by a factor of 2.0. All solutions were made up in distilled water and used at room temperature. The testing procedure was the staircase-method modified from Pasquet et al.. Each subject evaluated all 7 tastants. The seven series of solutions were presented one after another within a single section. Within each series, the solutions with each 2.0 ml were applied to the whole tongue of each subject with a pipet in order of ascending concentrations. The subjects were asked not to swallow test solutions and rinse their mouth between two solutions with distilled water. The subject was requested to correctly name the taste quality in each series. Once the taste of two successive concentrations was recognized successfully, the subject was given the previous unrecognized concentration (first reversal). The points at which concentration sequence changed from a decrease to an increase or vice versa were designated “reversals”. The procedure was terminated after five reversals, and the threshold was calculated as the mean of the concentration values of the last four reversals.
Student's t-test was used for detection of differences in the mean recognition thresholds between males and females. The χ^2 test was used for checking Hardy-Weinberg Equilibrium (HWE) for the genotype frequencies in samples to control genotyping errors, for detection of differences in genotype and allele frequencies between high and low taste recognition threshold groups. Yates'χ^2 test was used when the number was less than 10. The mean values (the center±S.E. of gaussian curve on X-axis) in the distribution of recognition thresholds defined by TAS1R1/TAS1R3 haplotypes (TAS1R1-372A/TAS1R3-757R homozygotes, TAS1R1-372T/TAS1R3-757R homozygotes, homo- and heterozygotes containing TAS1R3-757C) were calculated using gauss fit function of Origin 5.0 (OriginLab Corp). For Ca^2+ imaging analysis, data were normalized to response to 10 µM ISO, and mean values (±S.E.) were calculated from 10∼18 independent analyses. EC50 values were calculated from individual cumulative concentration-response data using sigmoid fit functions of Origin 5.0. One factor ANOVAs were conducted for detection of differences in the distributions of recognition thresholds for umami substances among 3 groups defined by TAS1R1/TAS1R3 haplotypes, and in the responses to 5, 20 and 50 mM MSG or 0.3, 5 and 50 mM M+I among TAS1R1/TAS1R3 variants in Ca^2+ imaging analysis. When the ANOVA was significant, post-hoc Student's t-test or Fisher's PLSD test was performed to compare individual means at each umami compound or concentration. Significance level was 0.05.

Turning to `N[C@@H](CCC(=O)O)C(=O)[O-].[Na+]` [MSG, monosodium glutamate], the “mean recognition threshold by Gaussian fit analysis” value runs as follows: (AR homozygotes (372A/757R)) 7.51 ± 0.44 mM; (TR homozygotes (372T/757R)) 4.38 ± 0.29 mM; (homo- and heterozygotes containing TAS1R3-757C) 8.60 ± 0.20 mM. The “mean (±S.E.) recognition threshold” value by setting is: (AR homozygotes (372A/757R, n = 84)) 6.23 ± 0.45 mM; (TR homozygotes (372T/757R, n = 37)) 4.65 ± 0.47 mM; (all subjects (254 Japanese, both genders)) 7.66 ± 0.43 mM; (homo- and heterozygotes containing TAS1R3-757C (n = 39)) 8.43 ± 0.98 mM. Further, the “difference of mean recognition thresholds among 3 groups divided by TAS1R1-A372T and TAS1R3-R757C haplotypes” value (TR<AR<TAS1R3-757C) was 2∼3 fold. The mean recognition threshold reads like this: (female subjects) 6.91 ± 0.62 mM; (male subjects) 8.27 ± 0.60 mM.
